Among the data in BindingDB's records for PubMed 36069713 (China Pharmaceutical University, 2022) are EC50 values, retold here.

The term EC50 denotes the midpoint of the concentration-response curve.

This assay in a line: Agonist activity at STING in STING knockout human THP-1 cells harboring IRF-inducible luciferase reporter construct assessed as increase in relative […] unit incubated for 12 hrs by Quanti-luc reagent based assay.

As to `CC[C@H](CC(=O)c1cc2cc(OC)c(OC)cc2[se]1)C(=O)O`, the EC50 is greater than 100 µM.
